Experimental data taken from patent US20090047243A1, “COMBINATIONS FOR THE TREATMENT OF B-CELL PROLIFERATIVE DISORDERS” (priority 2007, published 2009).

How the values were obtained:
[1] = test system: phosphodiesterase (PDE) types; details: PDE type(s) in brackets after the name; cited from earlier work
[2] = test system: human multiple myeloma cells (MM.1S); assay: Anti-proliferation assay (ATPLite, 72 h); format: cell-based; parameters: key to synergy score / synergy (score), PDEi × HE-NECA: S = lnfX·lnfY·ΣIdata(Idata−ILoewe), volume over Loewe additivity
Protocol: (§1) ANBL6 and INA-6 culture media was also supplemented with 10 ng/ml IL-6. […] MM.1S, MM.1R, OCI-ly10, Karpas 422, and SU-DHL6 cells were provided by the Dana Farber Cancer Institute. H929, RPMI-8226, GA-10, and Farage cells were from ATCC (Cat #'s CCL-155, CRL-9068, CRL-2392 and CRL-2630 respectively). MOLP-8, EJM, KSM-12-PE, and OPM2 were from DSMZ. The ANBL6 and INA-6 cell lines were provided by the M. D. Anderson Cancer Research Center. Compounds were prepared in DMSO at 1000× the highest desired concentration. Master plates were generated consisting of serially diluted compounds in 2- or 3-fold dilutions in 384-well format. For single agent dose response curves, the master plates consisted of 9 individual compounds at 12 concentrations in 2- or 3-fold dilutions. For combination matrices, master plates consisted of individual compounds at 6 or 9 concentrations at 2- or 3-fold dilutions. […] To obtain combination data, two master plates were diluted into the assay plates. […] Thirty microliters of ATPLite (Perkin Elmer) at room temperature was then added to each well. […] Measurements were taken at the top of the well using a luminescence aperture and a read time of 0.1 seconds per well. The percent inhibition (% I) for each well was calculated using the following formula: % I=[(avg. untreated wells-treated well)/(avg. untreated wells)]×100. […] Negative inhibition values result from local variations in treated wells as compared to untreated wells. […] The uncertainty of each fitted parameter was estimated from the range over which the change in reduced chi-squared was less than one, or less than minimum reduced chi-squared if that minimum exceeded one, to allow for underestimated σI errors. Single agent curve data were used to define a dilution series for each compound to be used for combination screening in a 6×6 matrix format. […] The Loewe additivity model was used to quantify combination effects. […] A “Synergy Score” was also used, where the Synergy Score S=log fX log fY ΣIdata(Idata-ILoewe), summed over all non-single-agent concentration pairs, and where log fX,Y is the natural logarithm of the dilution factors used for each single agent. This effectively calculates a volume between the measured and Loewe additive response surfaces, weighted towards high inhibition and corrected for varying dilution factors. An uncertainty σS was calculated for each synergy score, based on the measured errors for the Idata values and standard error propagation.

[3] = test system: H929 multiple myeloma cell line; assay: Anti-proliferation assay (ATPLite, 72 h); format: cell-based, human; parameters: key: S = lnfX·lnfY·ΣIdata(Idata−ILoewe), volume over Loewe additivity
Protocol: as §1

[4] = test system: human multiple myeloma cells (MM.1R); assay: Anti-proliferation assay (ATPLite, 72 h); format: cell-based; parameters: key: S = lnfX·lnfY·ΣIdata(Idata−ILoewe), volume over Loewe additivity
Protocol: as §1

[5] = test system: RPMI-8226 multiple myeloma cell line; assay: Anti-proliferation assay (ATPLite, 72 h); format: cell-based, human; parameters: key: S = lnfX·lnfY·ΣIdata(Idata−ILoewe), volume over Loewe additivity
Protocol: as §1

[6] = test system: human multiple myeloma cells (MM.1R) transfected with siRNA; assay: Anti-proliferation assay after siRNA transfection; format: cell-based; details: MM.1R, siRNA targeting PDE 2A, HE-NECA 0 nM
Protocol: siRNA to adenosine receptor A1, A2A, A3, PDE 2A, PDE 3B, PDE 4B, PDE 4D and PDE 7A, and control siRNA siCON were purchased from Dharmacon. A2B siRNA was purchased from Invitrogen. Electroporations were performed using an Amaxa Nucleoporator (program S-20) and solution V. siRNAs were used at 50 nM. […] RNA was isolated using Qiagen RNAeasy kits, and targets quantified by RT-PCR using gene specific primers purchased from Applied Biosystems.
Cells were added to 384-well plates 24 hours prior to compound addition such that each well contained 2000 cells in 35 μL of media. Master plates were diluted 100× (1 μL into 100 μL) into 384-well dilution plates containing only cell culture media. 4.5 μL from each dilution plate was added to each assay plate for a final dilution of 1000×. To obtain combination data, two master plates were diluted into the assay plates. Following compound addition, assay plates were kept at 37° C. and 5% CO2 for 72 hours. Thirty microliters of ATPLite (Perkin Elmer) at room temperature was then added to each well. Final amount of ATP was quantified within 30 minutes using ATPLite luminescent read-out on an Envision 2103 Multilabel Reader (Perkin Elmer). Measurements were taken at the top of the well using a luminescence aperture and a read time of 0.1 seconds per well.
We also examined the antiproliferative activity of adenosine receptor agonists when the MM cell line MM.1R was transfected with siRNA targeting the A1, A2A, A2B or A3 receptor. Specific gene silencing (A1, A2A, A2B, or A3) was greater than 50% as determined by real time PCR analysis 48 hours post-transfection. At 48 hours post-transfection, cells were exposed to adenosine receptor agonist, incubated an additional 72 hours, and compounds assayed for antiproliferative activity. Representative data is in Table 34. Cells transfected with adenosine receptor siRNA or a control siRNA (scrambled sequences designed so that cellular transcriptsare not targeted) were treated with the adenosine receptor agonist ADAC. […] Similar results were obtained with a second siRNA with specificity for different region of the A2A receptor mRNA, confirming that the reduction in adenosine receptor agonist activity is the result of specific siRNA targeting of the A2A receptor (data not shown).
In our experiments, PDE gene silencing was always greater than 50% as confirmed by real time PCR analysis 48 hours post-transfection. At 48 hours post-transfection, cells were exposed to adenosine receptor agonist and PDE inhibitor, incubated an additional 72 hours, and compounds assayed for antiproliferative activity. Representative data is in Tables 39-45. For each analysis, the activity of cells transfected with an siRNA targeting a specific PDE was compared to cells transfected with a control non-targeting siRNA (siCON).

[7] = PDE inhibitor crossed with (S) ENBA, MM.1S
[8] = PDE inhibitor crossed with Chloro-IB-MECA, MM.1S
[9] = PDE inhibitor crossed with HE-NECA, MM.1S
[10] = PDE inhibitor crossed with (S) ENBA, H929
[11] = PDE inhibitor crossed with Chloro-IB-MECA, H929
[12] = PDE inhibitor crossed with HE-NECA, H929
[13] = in combination with adenosine receptor agonist CGS-21680, MM.1R
[14] = in combination with adenosine receptor agonist regadenoson, MM.1R
[15] = PDE inhibitor crossed with ADAC, MM.1S
[16] = in combination with adenosine receptor agonist CGS-21680, MM.1S
[17] = in combination with adenosine receptor agonist regadenoson, MM.1S
[18] = PDE inhibitor crossed with ADAC, H929
[19] = in combination with adenosine receptor agonist CGS-21680, H929
[20] = in combination with adenosine receptor agonist regadenoson, H929
[21] = in combination with adenosine receptor agonist CGS-21680, RPMI 8226
[22] = in combination with adenosine receptor agonist regadenoson, RPMI 8226

Row | Compound | PDE inhibitors (specificity) [1] | synergy score [2, 7] | synergy score [2, 8] | synergy score [2, 9] | synergy score [3, 10] | synergy score [3, 11] | synergy score [3, 12] | synergy score [2, 15] | synergy score [3, 18] | further results
1 | CN/C(=N\c1ccc(C2=NNC(=O)CC2C)cc1)NC#N (centres unmarked) [Siguazodan] | Siguazodan (3) | 1.39 | 0.42 | 0.72 | 0.13 | 0.09 | 0.08 | – | – | –
2 | Cc1[nH]c(=O)c(C#N)cc1-c1ccncc1 [milrinone] | Milrinone (3) | 1.31 | 0.25 | 0.33 | – | 0.08 | 0.15 | – | – | –
3 | CC(C)C(=O)c1c(C(C)C)nn2ccccc12 [Ibudilast, 1-(2-isopropyl-pyrazolo[1,5-a]pyridine-3-yl)-2-methylpropan-1-one] | – | 0.55 | 0.74 | 0.98 | 0.21 | 0.32 | 0.32 | 0.23 | 1.04 | synergy score [4, 13]: 2.29; synergy score [4, 14]: 1; synergy score [2, 16]: 2.22; synergy score [2, 17]: 0.37; synergy score [3, 19]: 1.76; synergy score [3, 20]: 1.08; synergy score [5, 21]: 0.47; synergy score [5, 22]: 0.29
4 | (R)-Rolipram | (R)-Rolipram (4) | 2.08 | 0.84 | 4.38 | 0.82 | 0.63 | 2.51 | 0.97 | 0.51 | –
5 | CC(C)Cn1c(=O)n(C)c(=O)c2[nH]cnc21 [IBMX] | IBMX (pan) | 0.055 | – | – | – | – | – | – | – | –
6 | OCCN(CCO)c1nc(N2CCCCC2)c2nc(N(CCO)CCO)nc(N3CCCCC3)c2n1 [Dipyridamole, 2-{[9-(bis(2-hydroxyethyl)amino)-2,7-bis(1-piperidyl)-3,5,8,10-tetrazabicyclo[4.4.0]deca-2,4,7,9,11-pentaen-4-yl]-(2-hydroxyethyl)amino}ethanol] | – | 0.17 | 0.20 | 0.08 | 0.26 | 0.08 | 0.13 | 1.18 | 2.05 | synergy score ([4]; in combination with adenosine receptor agonist ADAC, MM.1R): 1.34; synergy score ([2]; in combination with adenosine receptor agonist ADAC, MM.1S): 1.18; synergy score ([3]; in combination with adenosine receptor agonist ADAC, H929): 2.05; synergy score ([5]; in combination with adenosine receptor agonist ADAC, RPMI-8226): 0.62
7 | CCOC(=O)C1=C[C@]2(CC)CCCN3CCc4c(n1c1ccccc41)[C@@H]32 [Vinoceptine] | Vinoceptine (1) | 0.25 | – | 0.26 | 0.21 | – | 0 | 0.02 | 0.01 | –
8 | Nc1nc(N)nc(-c2cc(Cl)ccc2Cl)n1 [Irsogladine] | Irsogladine (4) | 0.38 | 0.25 | – | 0.09 | 0.05 | – | – | – | –
9 | COc1ccc([C@@H]2CNC(=O)C2)cc1OC1CCCC1 [R-(−)-Rolipram] | – | – | – | – | – | – | – | – | – | Antiproliferative activity ([6]; R-(−)-Rolipram 0.23 μM): 3.8; Antiproliferative activity ([6]; R-(−)-Rolipram 2 μM): 8.1; Antiproliferative activity ([6]; R-(−)-Rolipram 6.1 μM): 5.3; Antiproliferative activity ([6]; R-(−)-Rolipram 18 μM): 7.7; Antiproliferative activity ([6]; R-(−)-Rolipram […]): −1.2; synergy score [4, 13]: 4.54; synergy score [4, 14]: 3.62; synergy (score), PDEi × HE-NECA ([2]; 6×6 cross of PDE inhibitor or PDE inhibitor mixture with HE-NECA, MM.1S): 2.33; synergy score [2, 16]: 1.92; synergy score ([2]; in combination with adenosine receptor agonist HE-NECA, MM.1S): 2.965; synergy score [2, 17]: 1.83; synergy (score), PDEi × HE-NECA ([3]; 6×6 cross of PDE inhibitor or PDE inhibitor mixture with HE-NECA, H929): 1.88; synergy score [3, 19]: 1.93; synergy score ([3]; in combination with adenosine receptor agonist HE-NECA, H929): 2.148; synergy score [3, 20]: 1.91; synergy score [5, 21]: 2.03; synergy score ([5]; in combination with adenosine receptor agonist HE-NECA, RPMI-8226): 1.16; synergy score [5, 22]: 0.63
10 | CC(=O)CCCCn1c(=O)c2c(ncn2C)n(C)c1=O [Pentoxifylline] | Pentoxifylline (pan) | 0.49 | 0.05 | 0.29 | 0.02 | 0.02 | 0.09 | – | – | –
